In assay [1] the target is KHK-C expressed in NRK-52E cells (Homo sapiens (Human), UniProt P50053). Description: KHK-C Cell-based Assay (EC50), NRK CTG, fructose-mediated ATP-depletion.
For a further assay, the target named is human KHK-C (Homo sapiens (Human), UniProt P50053). Put plainly: KHK Biochemical Assay (IC50), ADP-Glo, KHK-C. Particulars: average of at least two separate assays. In short, it runs like this:
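His-tagged enzyme expressed in BL21 (DE3), Ni-NTA purified. Compounds, serially diluted 1:3 in DMSO, pre-incubated 30 min with enzyme in 50 mM Hepes pH 7.4, 140 mM KCl, 5 mM MgCl2, 0.01% Triton-X, then ATP and fructose added; 4 h at room temperature. ADP formation read by ADP-Glo luminescence.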
(In general: In ADP-Glo the light output rises with the ADP produced.)

Where [2] appears, read: read-out: NRK CTG EC50, NRK-52E cells, Cell-Titer Glo, 25 mM fructose.

Where two headings read alike, the source gives them in different places. A value given as a limit tells only on which side of the number the result lay.

Broadly, the EC50 is the concentration that produces a half-maximal response. The term IC50 denotes the concentration that inhibits the measured activity by half. High values mean lower potency, low ones higher potency.

human KHK-C, sequence (P50053 whole entry): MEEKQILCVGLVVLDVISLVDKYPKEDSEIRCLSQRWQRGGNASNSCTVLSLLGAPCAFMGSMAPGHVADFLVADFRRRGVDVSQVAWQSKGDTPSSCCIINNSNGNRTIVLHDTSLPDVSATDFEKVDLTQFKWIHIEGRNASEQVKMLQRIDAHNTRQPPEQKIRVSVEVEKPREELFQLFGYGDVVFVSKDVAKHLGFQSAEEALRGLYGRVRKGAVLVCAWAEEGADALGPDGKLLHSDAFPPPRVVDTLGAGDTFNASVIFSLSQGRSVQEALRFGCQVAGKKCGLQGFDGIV
KHK-C expressed in NRK-52E cells, sequence (P50053 whole entry): as above

Compound `C[C@@H]1CNC(=O)c2ccc(-c3nc(N4C[C@@H](O)[C@@H]4C)nc4c3CCC4(F)F)cc2O1` [Example 94] came in with an EC50 in assay [1] of 84.1 nM. The same compound gave an IC50 on human KHK-C (ADP-Glo) of 8.4 nM.
In assay [1], `Cc1cc(-c2nc(N3C[C@@H](O)[C@@H]3C)nc3c2CCC3(F)F)ccc1C1(N)COC1` [Example 505, (2S,3R)-1-(4-(4-(3-aminooxetan-3-yl)-3-methylphenyl)-7,7-difluoro-6,7-dihydro-5H-cyclopenta[d]pyrimidin-2-yl)-2-methylazetidin-3-ol] had an EC50 of 11.9 nM. Further, the IC50 on human KHK-C came to 2.4 nM.
The like results for `C[C@@H]1CCCN1c1nc2c(c(-c3ccc(C(N)=O)cc3)n1)CCC2` [Example 404, (R)-4-(2-(2-methylpyrrolidin-1-yl)-6,7-dihydro-5H-cyclopenta[d]pyrimidin-4-yl)benzamide] were, in that order, more than 5000 nM and more than 5000 nM.
The like results for `C[C@@H](NS(C)(=O)=O)c1ccc(-c2nc(N3C[C@@H](O)[C@@H]3C)nc3c2CCC3(F)F)cc1` [Example 740, N-[(1R)-1-[4-[7,7-difluoro-2-[(2S,3R)-3-hydroxy-2-methyl-azetidin-1-yl]-5,6-dihydrocyclopenta[d]pyrimidin-4-yl]phenyl]ethyl]methanesulfonamide] were, in that order, 323 nM and 40.3 nM.
On the same counts, the results for `C[C@H]1[C@H](O)CN1c1nc(-c2ccc3c(c2)OCCNS3(=O)=O)c2c(n1)C(F)(F)CC2` [Example 500] are 238 nM and 48.6 nM.
`C[C@H]1CCN1c1nc2c(c(-c3cc(Cl)cc([C@H]4C[C@@H]4C(=O)O)c3)n1)CCC2` [Example 443, (1S,2S)-2-[3-chloro-5-[2-[(2S)-2-methylazetidin-1-yl]-6,7-dihydro-5H-cyclopenta[d]pyrimidin-4-yl]phenyl]cyclopropanecarboxylic acid] yielded an EC50 in assay [1] of 53.8 nM. On human KHK-C, the IC50 came to 4.2 nM.
On the same counts, the results for `C[C@H]1CCN1c1nc2c(c(-c3ccc4oc(N)nc4c3)n1)CCC2` [Example 736, (S)-5-(2-(2-methylazetidin-1-yl)-6,7-dihydro-5H-cyclopenta[d]pyrimidin-4-yl)benzo[d]oxazol-2-amine] are 34.9 nM and 21 nM.
The like results for `C[C@H]1CCN1c1nc2c(c(-c3ccc(C(N)=O)cn3)n1)CCC2` [Example 752, 6-[2-[(2S)-2-methylazetidin-1-yl]-6,7-dihydro-5H-cyclopenta[d]pyrimidin-4-yl]pyridine-3-carboxamide] were, in that order, 223 nM and 79.2 nM.
The like results for `CSCC1CCN1c1nc2c(c(-c3ccc(C(N)=O)cc3)n1)CCC2` (stereo not shown) [Example 415, 4-(2-(2-((methylthio)methyl)azetidin-1-yl)-6,7-dihydro-5H-cyclopenta[d]pyrimidin-4-yl)benzamide] were, in that order, more than 5000 nM and more than 5000 nM.
In turn, `CC(=O)Nc1cc(-c2nc(N3C[C@@H](O)[C@@H]3C)nc3c2CCC3(F)F)ccc1C(N)=O` [Example 181, 2-acetamido-4-(7,7-difluoro-2-((2S,3R)-3-hydroxy-2-methylazetidin-1-yl)-6,7-dihydro-5H-cyclopenta[d]pyrimidin-4-yl)benzamide] gave an EC50 in assay [1] of 579 nM. Besides, the midpoint of inhibition on human KHK-C (ADP-Glo), the IC50, lay at 11 nM.
For `C[C@H]1[C@H](O)CN1c1nc2c(c(-c3ccc(C(N)=O)cc3)n1)CC(F)(F)CC2` [Example 444, 4-(6,6-difluoro-2-((2S,3R)-3-hydroxy-2-methylazetidin-1-yl)-5,6,7,8-tetrahydroquinazolin-4-yl)benzamide], in assay [1], the EC50 was more than 5000 nM. The IC50 at human KHK-C was more than 5000 nM.
In turn, `C[C@H]1[C@H](O)CN1c1nc2c(c(-c3cc4c(c(S(N)(=O)=O)c3)OCC4)n1)CCC2` [Example 739, 5-(2-((2S,3R)-3-hydroxy-2-methylazetidin-1-yl)-6,7-dihydro-5H-cyclopenta[d]pyrimidin-4-yl)-2,3-dihydrobenzofuran-7-sulfonamide] came in with an EC50 in assay [1] of 215 nM. Moreover, the IC50 on human KHK-C amounted to 38.4 nM.
The like results for `C[C@H]1CCN1c1nc2c(c(-c3ccc4c(c3)CN(S(=O)(=O)CCO)CC4)n1)CCC2` [Example 605] were, in that order, 150 nM and 96.8 nM.
Compound `C[C@H]1[C@H](O)CN1c1nc2c(c(-c3ccc(CNS(C)(=O)=O)cc3)n1)CCC2` [Example 195, N-[[4-[2-[(2S,3R)-3-hydroxy-2-methyl-azetidin-1-yl]-6,7-dihydro-5H-cyclopenta[d]pyrimidin-4-yl]phenyl]methyl]methanesulfonamide] gave a concentration for a half-maximal effect (EC50) in assay [1] of 431 nM. The same compound came in with an IC50 against human KHK-C (ADP-Glo) of 58.6 nM.
For the compound `C[C@H]1[C@H](O)CN1c1nc(-c2ccc(C(=O)NCC#N)cc2)c2c(n1)C(F)(F)CC2` [Example 737, N-(cyanomethyl)-4-(7,7-difluoro-2-((2S,3R)-3-hydroxy-2-methylazetidin-1-yl)-6,7-dihydro-5H-cyclopenta[d]pyrimidin-4-yl)benzamide], the EC50 in assay [1] was 242 nM. Further, half-maximal inhibition against human KHK-C (IC50) was put at 9.7 nM.
On to `C[C@H]1CCN1c1nc2c(c(-c3cccc([C@H]4C[C@@H](C(=O)O)C4)c3)n1)CCC2` (single isomer, unassigned) [Example 440], for which, in assay [1] (setting [2]), the EC50 was found to be 81.6 nM. The compound also returned an IC50 on human KHK-C of 6.2 nM.
`C[C@H](NS(C)(=O)=O)c1ccc(-c2nc(N3C[C@@H](O)[C@@H]3C)nc3c2CCC3(F)F)cc1` [Example 744, N-[(1S)-1-[4-[7,7-difluoro-2-[(2S,3R)-3-hydroxy-2-methyl-azetidin-1-yl]-5,6-dihydrocyclopenta[d]pyrimidin-4-yl]phenyl]ethyl]methanesulfonamide]: in assay [1], the EC50 was found to be 142 nM. The compound further displayed an IC50 against human KHK-C of 17.2 nM.
With `C[C@H]1[C@H](O)CN1c1nc(-c2ccc(C(N)=O)cc2)c2c(n1)C1CC2C1` [Example 176], the response in assay [1] was half-maximal at 2810 nM (EC50). 899 nM corresponded to half-maximal inhibition against human KHK-C (ADP-Glo) (IC50).
For the compound “(1S)-1-[4-[7,7-difluoro-2-[(2S)-2-methylazetidin-1-yl]-5,6-dihydrocyclopenta[d]pyrimidin-4-yl]phenyl]-2,2-difluoro-ethanamine [Example 652]”, the EC50 in assay [1] (setting [2]) was determined as 193 nM. Moreover, at human KHK-C, the IC50 stood at 23.6 nM.
Regarding `NC(=O)c1ccc(-c2nc(N3CCCC34CC4)nc3c2CCC3)cc1` [Example 402, 4-(2-(4-azaspiro[2.4]heptan-4-yl)-6,7-dihydro-5H-cyclopenta[d]pyrimidin-4-yl)benzamide], the EC50 in assay [1] was 1590 nM. The compound also registered an IC50 against human KHK-C of 3760 nM.
The like results for `C[C@@H](NS(C)(=O)=O)c1cccc(-c2nc(N3C[C@@H](O)[C@@H]3C)nc3c2CCC3(F)F)c1` [Example 741, N-[(1R)-1-[3-[7,7-difluoro-2-[(2S,3R)-3-hydroxy-2-methyl-azetidin-1-yl]-5,6-dihydrocyclopenta[d]pyrimidin-4-yl]phenyl]ethyl]methanesulfonamide] were, in that order, 224 nM and 24.9 nM.
The compound `C[C@H]1[C@H](O)CN1c1nc2c(c(-c3ccc4c(c3)S(=O)(=O)CNC4=O)n1)CCC2` [Example 601, 7-(2-((2S,3R)-3-hydroxy-2-methylazetidin-1-yl)-6,7-dihydro-5H-cyclopenta[d]pyrimidin-4-yl)-2,3-dihydro-4H-benzo[e][1,3]thiazin-4-one 1,1-dioxide] yielded an EC50 in assay [1] of more than 5000 nM. This compound registered an IC50 at human KHK-C of 95.1 nM.
Compound `CNC(=O)c1ccc(-c2nc(N3C[C@@H](O)[C@@H]3C)nc3c2CCC3(F)F)cc1` [Example 171, 4-(7,7-difluoro-2-((2S,3R)-3-hydroxy-2-methylazetidin-1-yl)-6,7-dihydro-5H-cyclopenta[d]pyrimidin-4-yl)-N-methylbenzamide] returned an EC50 in assay [1] of 165 nM. Besides, 23.5 nM corresponded to half-maximal inhibition against human KHK-C (ADP-Glo) (IC50).
The compound `C[C@H]1CCN1c1nc2c(c(-c3cccc(C4=CS(=O)(=O)C4)c3)n1)CCC2` [Example 420, (S)-3-(3-(2-(2-methylazetidin-1-yl)-6,7-dihydro-5H-cyclopenta[d]pyrimidin-4-yl)phenyl)-2H-thiete 1,1-dioxide] came in with an EC50 in assay [1] of 382 nM. This compound gave an IC50 on human KHK-C of 61.8 nM.
On the same counts, the results for `C[C@H]1[C@H](O)CN1c1nc(-c2ccc(C3(N)COC3)nc2)c2c(n1)C(F)(F)CC2` [Example 506, (2S,3R)-1-(4-(6-(3-aminooxetan-3-yl)pyridin-3-yl)-7,7-difluoro-6,7-dihydro-5H-cyclopenta[d]pyrimidin-2-yl)-2-methylazetidin-3-ol] are more than 5000 nM and more than 5000 nM.
On the same counts, the results for `CS(=O)(=O)c1cccc(-c2nc(N3CCC[C@H]3C#N)nc3c2CCC3)c1` [Example 712, (S)-1-(4-(3-(methylsulfonyl)phenyl)-6,7-dihydro-5H-cyclopenta[d]pyrimidin-2-yl)pyrrolidine-2-carbonitrile] are more than 5000 nM and more than 5000 nM.
On the same counts, the results for `C[C@H]1CCN1c1nc2c(c(-c3ccc4nc(N)oc4c3)n1)CCC2` [Example 728, (S)-6-(2-(2-methylazetidin-1-yl)-6,7-dihydro-5H-cyclopenta[d]pyrimidin-4-yl)benzo[d]oxazol-2-amine] are 52.1 nM and 22.2 nM.
With `C[C@H]1CCN1c1nc(-c2cc3c(c(S(N)(=O)=O)c2)OCC3)c2c(n1)C(F)(F)CC2` [Example 742, 5-[7,7-difluoro-2-[(2S)-2-methylazetidin-1-yl]-5,6-dihydrocyclopenta[d]pyrimidin-4-yl]-2,3-dihydrobenzofuran-7-sulfonamide], the response in assay [1] was half-maximal at 4.1 nM (EC50). The IC50 at human KHK-C is 1.3 nM.
On the same counts, the results for `C[C@H]1[C@H](O)CN1c1nc(-c2ccc(C3(N)COC3)c(F)c2)c2c(n1)C(F)(F)CC2` [Example 503, (2S,3R)-1-(4-(4-(3-aminooxetan-3-yl)-3-fluorophenyl)-7,7-difluoro-6,7-dihydro-5H-cyclopenta[d]pyrimidin-2-yl)-2-methylazetidin-3-ol] are 26.7 nM and 5 nM.

Source of the values: patent publication US12410160B2 (Gilead Sciences, Inc., priority 2021, dated 2025).
